From US4508663A, “Process for preparing thiosulfenamide derivatives of N-phosphonomethylglycinonitriles” (Monsanto Company, priority 1983, dated 1985)

Tests used:
Assay in all cases: post-emergence herbicidal activity, greenhouse
Type in all cases: in vivo
[1] = system: Lambsquarters
Outline: (§1)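 Plants grown from seed or perennial propagules in greenhouse soil pans were sprayed at two to three weeks with compound solution or suspension containing about 0.4% emulsifier, at the stated application rates. Injury relative to untreated controls was scored at approximately two and four weeks after treatment on a post-emergence activity index.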

[2] = system: Canada Thistle; settings: Table I, 4 WAT
Outline: as §1

[3] = system: Wheat; settings: Table II
Outline: as §1

[4] = system: Smartweed; settings: Table I, 4 WAT
Outline: as §1

[5] = system: Sugar Beet; settings: Table II
Outline: as §1

[6] = system: Cocklebur
Outline: as §1

[7] = system: Soybean; settings: Table II
Outline: as §1

[8] = system: Barnyardgrass
Outline: as §1

[9] = system: Johnsongrass; settings: Table I, 4 WAT
Outline: as §1

[10] = system: Morningglory
Outline: as §1

[11] = system: Wild Buckwheat; settings: Table II
Outline: as §1

[12] = system: Downy Brome
Outline: as §1

[13] = system: Velvetleaf
Outline: as §1

[14] = system: Quackgrass; settings: Table I, 4 WAT
Outline: as §1

[15] = system: Sorghum; settings: Table II
Outline: as §1

[16] = system: Crabgrass; settings: Table II
Outline: as §1

[17] = system: Rice; settings: Table II
Outline: as §1

[18] = system: Panicum Spp; settings: Table II
Outline: as §1

[19] = system: Yellow Nutsedge; settings: Table I, 4 WAT
Outline: as §1

[20] = system: Hemp Sesbania; settings: Table II
Outline: as §1

`CC(C)SSN(CC#N)CP(=O)(Oc1ccccc1)Oc1ccccc1` [VI, Phosphonic acid, [[(cyanomethyl)[(1-methylethyl)-dithio]amino]methyl]-, diphenyl ester] was tested, and the “post-emergence herbicidal activity index” value ([1]; Table I, 4 WAT, 5.6 kg/h) was 3 (75-99% control), the “post-emergence herbicidal activity index” value ([1]; Table I, 4 WAT, 11.2 kg/h) was 4 (100% control) and the “post-emergence herbicidal activity index” value ([1]; Table II, 2 WAT, 1.12 kg/h) was 3 (75-99% control). For the same molecule, the “post-emergence herbicidal activity index” value ([1]; Table II, 2 WAT, 5.6 kg/h) was 3 (75-99% control), the “post-emergence herbicidal activity index” value ([1]; Table II, 4 WAT, 0.28 kg/h) was 0 (0-24% control) and the “post-emergence herbicidal activity index” value ([1]; Table II, 4 WAT, 1.12 kg/h) was 3 (75-99% control). For the same molecule, the “post-emergence herbicidal activity index” value ([1]; Table II, 4 WAT, 5.6 kg/h) was 3 (75-99% control), the “post-emergence herbicidal activity index” value ([2]; 5.6 kg/h) was 2 (50-74% control) and the “post-emergence herbicidal activity index” value ([2]; 11.2 kg/h) was 2 (50-74% control). For the same molecule, the “post-emergence herbicidal activity index” value ([3]; 2 WAT, 1.12 kg/h) was 1 (25-49% control), the “post-emergence herbicidal activity index” value ([3]; 2 WAT, 5.6 kg/h) was 1 (25-49% control) and the “post-emergence herbicidal activity index” value ([3]; 4 WAT, 0.28 kg/h) was 0 (0-24% control). The “post-emergence herbicidal activity index” value ([3]; 4 WAT, 1.12 kg/h) was 0 (0-24% control), the “post-emergence herbicidal activity index” value ([3]; 4 WAT, 5.6 kg/h) was 1 (25-49% control) and the “post-emergence herbicidal activity index” value ([4]; 5.6 kg/h) was 2 (50-74% control). For the same molecule, the “post-emergence herbicidal activity index” value ([4]; 11.2 kg/h) was 2 (50-74% control), the “post-emergence herbicidal activity index” value ([5]; 2 WAT, 1.12 kg/h) was 0 (0-24% control) and the “post-emergence herbicidal activity index” value ([5]; 2 WAT, 5.6 kg/h) was 0 (0-24% control). The “post-emergence herbicidal activity index” value ([5]; 4 WAT, 0.28 kg/h) was 0 (0-24% control), the “post-emergence herbicidal activity index” value ([5]; 4 WAT, 1.12 kg/h) was 0 (0-24% control) and the “post-emergence herbicidal activity index” value ([5]; 4 WAT, 5.6 kg/h) was 1 (25-49% control). The “post-emergence herbicidal activity index” value ([6]; Table I, 4 WAT, 5.6 kg/h) was 2 (50-74% control), the “post-emergence herbicidal activity index” value ([6]; Table I, 4 WAT, 11.2 kg/h) was 2 (50-74% control) and the “post-emergence herbicidal activity index” value ([6]; Table II, 2 WAT, 1.12 kg/h) was 1 (25-49% control). The “post-emergence herbicidal activity index” value ([6]; Table II, 2 WAT, 5.6 kg/h) was 2 (50-74% control), the “post-emergence herbicidal activity index” value ([6]; Table II, 4 WAT, 0.28 kg/h) was 0 (0-24% control) and the “post-emergence herbicidal activity index” value ([6]; Table II, 4 WAT, 1.12 kg/h) was 1 (25-49% control). For the same molecule, the “post-emergence herbicidal activity index” value ([6]; Table II, 4 WAT, 5.6 kg/h) was 3 (75-99% control), the “post-emergence herbicidal activity index” value ([7]; 2 WAT, 1.12 kg/h) was 0 (0-24% control) and the “post-emergence herbicidal activity index” value ([7]; 2 WAT, 5.6 kg/h) was 1 (25-49% control). For the same molecule, the “post-emergence herbicidal activity index” value ([7]; 4 WAT, 0.28 kg/h) was 0 (0-24% control), the “post-emergence herbicidal activity index” value ([7]; 4 WAT, 1.12 kg/h) was 0 (0-24% control) and the “post-emergence herbicidal activity index” value ([7]; 4 WAT, 5.6 kg/h) was 1 (25-49% control). The “post-emergence herbicidal activity index” value ([8]; Table I, 4 WAT, 5.6 kg/h) was 2 (50-74% control), the “post-emergence herbicidal activity index” value ([8]; Table I, 4 WAT, 11.2 kg/h) was 2 (50-74% control) and the “post-emergence herbicidal activity index” value ([8]; Table II, 2 WAT, 1.12 kg/h) was 1 (25-49% control). The “post-emergence herbicidal activity index” value ([8]; Table II, 2 WAT, 5.6 kg/h) was 2 (50-74% control), the “post-emergence herbicidal activity index” value ([8]; Table II, 4 WAT, 0.28 kg/h) was 0 (0-24% control) and the “post-emergence herbicidal activity index” value ([8]; Table II, 4 WAT, 1.12 kg/h) was 0 (0-24% control). The “post-emergence herbicidal activity index” value ([8]; Table II, 4 WAT, 5.6 kg/h) was 3 (75-99% control), the “post-emergence herbicidal activity index” value ([9]; 5.6 kg/h) was 3 (75-99% control) and the “post-emergence herbicidal activity index” value ([9]; 11.2 kg/h) was 3 (75-99% control). The “post-emergence herbicidal activity index” value ([10]; Table I, 4 WAT, 5.6 kg/h) was 2 (50-74% control), the “post-emergence herbicidal activity index” value ([10]; Table I, 4 WAT, 11.2 kg/h) was 2 (50-74% control) and the “post-emergence herbicidal activity index” value ([10]; Table II, 2 WAT, 1.12 kg/h) was 1 (25-49% control). The “post-emergence herbicidal activity index” value ([10]; Table II, 2 WAT, 5.6 kg/h) was 1 (25-49% control), the “post-emergence herbicidal activity index” value ([10]; Table II, 4 WAT, 0.28 kg/h) was 0 (0-24% control) and the “post-emergence herbicidal activity index” value ([10]; Table II, 4 WAT, 1.12 kg/h) was 0 (0-24% control). For the same molecule, the “post-emergence herbicidal activity index” value ([10]; Table II, 4 WAT, 5.6 kg/h) was 1 (25-49% control), the “post-emergence herbicidal activity index” value ([11]; 2 WAT, 1.12 kg/h) was 0 (0-24% control) and the “post-emergence herbicidal activity index” value ([11]; 2 WAT, 5.6 kg/h) was 1 (25-49% control). The “post-emergence herbicidal activity index” value ([11]; 4 WAT, 0.28 kg/h) was 0 (0-24% control), the “post-emergence herbicidal activity index” value ([11]; 4 WAT, 1.12 kg/h) was 0 (0-24% control) and the “post-emergence herbicidal activity index” value ([11]; 4 WAT, 5.6 kg/h) was 1 (25-49% control). For the same molecule, the “post-emergence herbicidal activity index” value ([12]; Table I, 4 WAT, 5.6 kg/h) was 2 (50-74% control), the “post-emergence herbicidal activity index” value ([12]; Table I, 4 WAT, 11.2 kg/h) was 3 (75-99% control) and the “post-emergence herbicidal activity index” value ([12]; Table II, 2 WAT, 1.12 kg/h) was 0 (0-24% control). The “post-emergence herbicidal activity index” value ([12]; Table II, 2 WAT, 5.6 kg/h) was 2 (50-74% control), the “post-emergence herbicidal activity index” value ([12]; Table II, 4 WAT, 0.28 kg/h) was 0 (0-24% control) and the “post-emergence herbicidal activity index” value ([12]; Table II, 4 WAT, 1.12 kg/h) was 0 (0-24% control). The “post-emergence herbicidal activity index” value ([12]; Table II, 4 WAT, 5.6 kg/h) was 2 (50-74% control), the “post-emergence herbicidal activity index” value ([13]; Table I, 4 WAT, 5.6 kg/h) was 1 (25-49% control) and the “post-emergence herbicidal activity index” value ([13]; Table I, 4 WAT, 11.2 kg/h) was 2 (50-74% control). For the same molecule, the “post-emergence herbicidal activity index” value ([13]; Table II, 2 WAT, 1.12 kg/h) was 0 (0-24% control), the “post-emergence herbicidal activity index” value ([13]; Table II, 2 WAT, 5.6 kg/h) was 1 (25-49% control) and the “post-emergence herbicidal activity index” value ([13]; Table II, 4 WAT, 0.28 kg/h) was 0 (0-24% control). For the same molecule, the “post-emergence herbicidal activity index” value ([13]; Table II, 4 WAT, 1.12 kg/h) was 1 (25-49% control), the “post-emergence herbicidal activity index” value ([13]; Table II, 4 WAT, 5.6 kg/h) was 2 (50-74% control) and the “post-emergence herbicidal activity index” value ([14]; 5.6 kg/h) was 0 (0-24% control). For the same molecule, the “post-emergence herbicidal activity index” value ([14]; 11.2 kg/h) was 1 (25-49% control), the “post-emergence herbicidal activity index” value ([15]; 2 WAT, 1.12 kg/h) was 1 (25-49% control) and the “post-emergence herbicidal activity index” value ([15]; 2 WAT, 5.6 kg/h) was 2 (50-74% control). For the same molecule, the “post-emergence herbicidal activity index” value ([15]; 4 WAT, 0.28 kg/h) was 0 (0-24% control), the “post-emergence herbicidal activity index” value ([15]; 4 WAT, 1.12 kg/h) was 1 (25-49% control) and the “post-emergence herbicidal activity index” value ([15]; 4 WAT, 5.6 kg/h) was 3 (75-99% control). For the same molecule, the “post-emergence herbicidal activity index” value ([16]; 2 WAT, 1.12 kg/h) was 1 (25-49% control), the “post-emergence herbicidal activity index” value ([16]; 2 WAT, 5.6 kg/h) was 3 (75-99% control) and the “post-emergence herbicidal activity index” value ([16]; 4 WAT, 0.28 kg/h) was 1 (25-49% control). The “post-emergence herbicidal activity index” value ([16]; 4 WAT, 1.12 kg/h) was 1 (25-49% control), the “post-emergence herbicidal activity index” value ([16]; 4 WAT, 5.6 kg/h) was 3 (75-99% control) and the “post-emergence herbicidal activity index” value ([17]; 2 WAT, 1.12 kg/h) was 0 (0-24% control). The “post-emergence herbicidal activity index” value ([17]; 2 WAT, 5.6 kg/h) was 0 (0-24% control), the “post-emergence herbicidal activity index” value ([17]; 4 WAT, 0.28 kg/h) was 0 (0-24% control) and the “post-emergence herbicidal activity index” value ([17]; 4 WAT, 1.12 kg/h) was 0 (0-24% control). For the same molecule, the “post-emergence herbicidal activity index” value ([17]; 4 WAT, 5.6 kg/h) was 0 (0-24% control), the “post-emergence herbicidal activity index” value ([18]; 2 WAT, 1.12 kg/h) was 0 (0-24% control) and the “post-emergence herbicidal activity index” value ([18]; 2 WAT, 5.6 kg/h) was 1 (25-49% control). The “post-emergence herbicidal activity index” value ([18]; 4 WAT, 0.28 kg/h) was 0 (0-24% control), the “post-emergence herbicidal activity index” value ([18]; 4 WAT, 1.12 kg/h) was 0 (0-24% control) and the “post-emergence herbicidal activity index” value ([18]; 4 WAT, 5.6 kg/h) was 1 (25-49% control). For the same molecule, the “post-emergence herbicidal activity index” value ([19]; 5.6 kg/h) was 0 (0-24% control), the “post-emergence herbicidal activity index” value ([19]; 11.2 kg/h) was 3 (75-99% control) and the “post-emergence herbicidal activity index” value ([20]; 2 WAT, 1.12 kg/h) was 0 (0-24% control). The “post-emergence herbicidal activity index” value ([20]; 2 WAT, 5.6 kg/h) was 1 (25-49% control), the “post-emergence herbicidal activity index” value ([20]; 4 WAT, 0.28 kg/h) was 0 (0-24% control) and the “post-emergence herbicidal activity index” value ([20]; 4 WAT, 1.12 kg/h) was 0 (0-24% control). For the same molecule, the “post-emergence herbicidal activity index” value ([20]; 4 WAT, 5.6 kg/h) was 1 (25-49% control).
